# Experiments:
# [1] = test system: antibodies in rabbit serum obtained by immunizing a rabbit with the SARS-CoV strain Frankfurt 1; type: binding
# [2] = test system: antibodies in sera of individuals which have been and/or are infected by SARS-CoV (SARS-green, SARS-yellow, 1a, 1b, 2, 6, 37, 62, London); type: binding, human
# [3] = test system: antibodies in control sera (pooled serum of 10 healthy LUMC hospital workers; commercial negative donor pooled serum); type: binding, human
Sequence,recognition by rabbit serum [1],"recognition by sera of SARS-CoV infected individuals, looped/cyclic form [2]",other results
ALGKLQDVVNQNAQA [SEQ ID NO:954],recognized by the rabbit serum,recognized in looped/cyclic form,
CDNPFFAVSKPMGTQ [SEQ ID NO:172],recognized by the rabbit serum,,
CTTFDDVQAPNYTQH [SEQ ID NO:58],recognized by the rabbit serum,,
DDVQAPNYTQHTSSM [SEQ ID NO:62],recognized by the rabbit serum,,
DFTDSVRDPKTSEIL [SEQ ID NO:585],recognized by the rabbit serum,,
DNPFFAVSKPMGTQT [SEQ ID NO:173],recognized by the rabbit serum,,
DRCTTFDDVQAPNYT [SEQ ID NO:56],recognized by the rabbit serum,,
DSVRDPKTSEILDIS [SEQ ID NO:588],recognized by the rabbit serum,,
DVQAPNYTQHTSSMR [SEQ ID NO:63],recognized by the rabbit serum,,
FDDVQAPNYTQHTSS [SEQ ID NO:61],recognized by the rabbit serum,,
FMLKYDENGTITDAV [SEQ ID NO:290],recognized by the rabbit serum,,
FTDSVRDPKTSEILD [SEQ ID NO:586],recognized by the rabbit serum,,
GIGYQPYRVVVLSFE [SEQ ID NO:516],recognized by the rabbit serum,,
GKLQDVVNQNAQALN [SEQ ID NO:956],recognized by the rabbit serum,recognized in looped/cyclic form,
GYHLMSFPQAAPHGVVFLHVTYVPSQERNFTTAPAICHEGKAYFPREG [SEQ ID NO:1247],,,recognition by control sera (domains homologous with OC43 spike) [3]: recognition by control sera derived from individuals which have not been infected by SARS-CoV; recognition by sera of SARS-CoV infected individuals (domains homologous with OC43 spike) [2]: recognition by sera derived from individuals which have been and/or are still infected by SARS-CoV
GYQPYRVVVLSFELL [SEQ ID NO:518],recognized by the rabbit serum,,
IGYQPYRVVVLSFEL [SEQ ID NO:517],recognized by the rabbit serum,,
KLQDVVNQNAQALNT [SEQ ID NO:957],recognized by the rabbit serum,recognized in looped/cyclic form,
KYDENGTITDAVDCS [SEQ ID NO:293],recognized by the rabbit serum,,
LDRCTTFDDVQAPNY [SEQ ID NO:55],recognized by the rabbit serum,,
LGKLQDVVNQNAQAL [SEQ ID NO:955],recognized by the rabbit serum,recognized in looped/cyclic form,
LKYDENGTITDAVDC [SEQ ID NO:292],recognized by the rabbit serum,,
MLKYDENGTITDAVD [SEQ ID NO:291],recognized by the rabbit serum,,
NPFFAVSKPMGTQTH [SEQ ID NO:174],recognized by the rabbit serum,,
PTTFMLKYDENGTIT [SEQ ID NO:287],recognized by the rabbit serum,,
QAPNYTQHTSSMRGV [SEQ ID NO:65],recognized by the rabbit serum,,
QPELDSFKEELDKYF [SEQ ID NO:1140],,recognized in looped/cyclic form,

Sequence,recognition by rabbit serum [1],"recognition by sera of SARS-CoV infected individuals, looped/cyclic form [2]",other results
RCTTFDDVQAPNYTQ [SEQ ID NO:57],recognized by the rabbit serum,,
RGVYYPDEIFRSDTL [SEQ ID NO:77],,recognized in looped/cyclic form,
RLDKVEAEVQIDRLI [SEQ ID NO:993],,recognized in looped/cyclic form,
RLNEVAKNLNESLID [SEQ ID NO:1181],,recognized in looped/cyclic form,
SDFTDSVRDPKTSEI [SEQ ID NO:584],recognized by the rabbit serum,,
SGSDLDRCTTFDDVQ [SEQ ID NO:51],,recognized in looped/cyclic form,
SGTATAGWTFGAGAA [SEQ ID NO:889],,,"recognition by sera of SARS-CoV infected individuals, linear form [2]: recognized in linear form"
SLTTTSTALGKLQDV [SEQ ID NO:947],,recognized in looped/cyclic form,
SMRGVYYPDEIFRSD [SEQ ID NO:75],,recognized in looped/cyclic form,
SNVPFSPDGKPCTPP [SEQ ID NO:484],,,"recognition by sera of SARS-CoV infected individuals, linear form [2]: recognized in linear form"
SPDGKPCTPPALNCY [SEQ ID NO:489],,,"recognition by sera of SARS-CoV infected individuals, linear form [2]: recognized in linear form"
SPDVDLGDISGINAS [SEQ ID NO:1157],,recognized in looped/cyclic form,
SRLDKVEAEVQIDRL [SEQ ID NO:992],,recognized in looped/cyclic form,
SSMRGVYYPDEIFRS [SEQ ID NO:74],,recognized in looped/cyclic form,
STALGKLQDVVNQNA [SEQ ID NO:952],recognized by the rabbit serum,,
SVDCNMYICGDSTEC [SEQ ID NO:745],,,"recognition by sera of SARS-CoV infected individuals, linear form [2]: recognized in linear form"
TAGWTFGAGAALQIP [SEQ ID NO:893],,,"recognition by sera of SARS-CoV infected individuals, linear form [2]: recognized in linear form"
TALGKLQDVVNQNAQ [SEQ ID NO:953],recognized by the rabbit serum,,
TATAGWTFGAGAALQ [SEQ ID NO:891],,,"recognition by sera of SARS-CoV infected individuals, linear form [2]: recognized in linear form"
TDSVRDPKTSEILDI [SEQ ID NO:587],recognized by the rabbit serum,,
TEVMPVSMAKTSVDC [SEQ ID NO:734],,recognized in looped/cyclic form,
TFDDVQAPNYTQHTS [SEQ ID NO:60],recognized by the rabbit serum,,
TFMLKYDENGTITDA [SEQ ID NO:289],recognized by the rabbit serum,,
TLTSGSDLDRCTTFD [SEQ ID NO:48],,recognized in looped/cyclic form,
TPPALNCYWPLNDYG [SEQ ID NO:496],,recognized in looped/cyclic form,
TQHTSSMRGVYYPDE [SEQ ID NO:70],,recognized in looped/cyclic form,
TSGSDLDRCTTFDDV [SEQ ID NO:50],,recognized in looped/cyclic form,

Sequence,recognition by rabbit serum [1],"recognition by sera of SARS-CoV infected individuals, looped/cyclic form [2]",other results
TSPDVDLGDISGINA [SEQ ID NO:1156],,recognized in looped/cyclic form,
TSSMRGVYYPDEIFR [SEQ ID NO:73],,recognized in looped/cyclic form,
TSTALGKLQDVVNQN [SEQ ID NO:951],recognized by the rabbit serum,,
TSVDCNMYICGDSTE [SEQ ID NO:744],,,"recognition by sera of SARS-CoV infected individuals, linear form [2]: recognized in linear form"
TTEVMPVSMAKTSVD [SEQ ID NO:733],,recognized in looped/cyclic form,
TTFDDVQAPNYTQHT [SEQ ID NO:59],recognized by the rabbit serum,,
TTFMLKYDENGTITD [SEQ ID NO:288],recognized by the rabbit serum,,
TTSTALGKLQDVVNQ [SEQ ID NO:950],recognized by the rabbit serum,recognized in looped/cyclic form,
TTTSTALGKLQDVVN [SEQ ID NO:949],,recognized in looped/cyclic form,
TVYDPLQPELDSFKE [SEQ ID NO:1134],,recognized in looped/cyclic form,
VAKNLNESLIDLQEL [SEQ ID NO:1185],,recognized in looped/cyclic form,
VDCNMYICGDSTECA [SEQ ID NO:746],,,"recognition by sera of SARS-CoV infected individuals, linear form [2]: recognized in linear form"
VNQNAQALNTLVKQL [SEQ ID NO:962],,recognized in looped/cyclic form,
VPFSPDGKPCTPPAL [SEQ ID NO:486],,,"recognition by sera of SARS-CoV infected individuals, linear form [2]: recognized in linear form"
VQAPNYTQHTSSMRG [SEQ ID NO:64],recognized by the rabbit serum,,
VSGTATAGWTFGAGA [SEQ ID NO:888],,,"recognition by sera of SARS-CoV infected individuals, linear form [2]: recognized in linear form"
VVNQNAQALNTLVKQ [SEQ ID NO:961],,recognized in looped/cyclic form,
VWLGFIAGLIAIVMV [SEQ ID NO:1212],,recognized in looped/cyclic form,
VYDPLQPELDSFKEE [SEQ ID NO:1135],,recognized in looped/cyclic form,
VYYPDEIFRSDTLYL [SEQ ID NO:79],,recognized in looped/cyclic form,
WLGFIAGLIAIVMVT [SEQ ID NO:1213],,recognized in looped/cyclic form,
WYVWLGFIAGLIAIV [SEQ ID NO:1210],,recognized in looped/cyclic form,
YDPLQPELDSFKEEL [SEQ ID NO:1136],,recognized in looped/cyclic form,
YFKNHTSPDVDLGDI [SEQ ID NO:1151],,recognized in looped/cyclic form,
YICGDSTECANLLLQ [SEQ ID NO:751],,,"recognition by sera of SARS-CoV infected individuals, linear form [2]: recognized in linear form"
YVWLGFIAGLIAIVM [SEQ ID NO:1211],,recognized in looped/cyclic form,
